In patent US8962842B2, “2-pyridone antimicrobial compositions” (priority 2010, dated 2015):
Converted amounts (≈) assume the structure as drawn. Read-outs that look alike come from different tables or passages of the source.

Key:
[1] = system: Enterococcus faecalis (5 strains); assay: MIC range, broader panel of Quotient Bioresearch strains (Table 3); conditions: for MIC50: read-out: MIC Range Median, Enterococcus faecalis (5 strains)
[2] = biological target: bacterial topoisomerase IV (Escherichia coli, UniProt P0AFI2+P20083); assay: Inhibition of topoisomerases activity in vitro, Topogen protocol TG1007 (Table 7); type: biochemical
bacterial topoisomerase IV, sequence (P20083 whole entry): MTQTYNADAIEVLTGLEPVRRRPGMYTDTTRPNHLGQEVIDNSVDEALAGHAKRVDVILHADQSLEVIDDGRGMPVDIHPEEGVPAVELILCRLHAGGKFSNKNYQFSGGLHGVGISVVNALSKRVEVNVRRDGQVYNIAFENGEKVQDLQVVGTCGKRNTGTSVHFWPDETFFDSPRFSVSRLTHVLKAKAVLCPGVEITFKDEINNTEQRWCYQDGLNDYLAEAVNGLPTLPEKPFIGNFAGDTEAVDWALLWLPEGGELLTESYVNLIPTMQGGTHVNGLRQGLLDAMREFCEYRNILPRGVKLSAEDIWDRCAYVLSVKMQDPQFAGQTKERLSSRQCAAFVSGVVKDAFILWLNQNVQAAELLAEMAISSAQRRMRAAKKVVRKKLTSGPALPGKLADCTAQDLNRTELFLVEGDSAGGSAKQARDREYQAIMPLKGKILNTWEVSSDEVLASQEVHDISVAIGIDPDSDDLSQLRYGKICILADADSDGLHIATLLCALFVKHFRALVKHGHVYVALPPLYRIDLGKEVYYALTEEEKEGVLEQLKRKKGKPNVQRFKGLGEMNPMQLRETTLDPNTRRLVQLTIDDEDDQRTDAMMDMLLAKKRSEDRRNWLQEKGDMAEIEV
bacterial topoisomerase IV, sequence (P0AFI2 whole entry): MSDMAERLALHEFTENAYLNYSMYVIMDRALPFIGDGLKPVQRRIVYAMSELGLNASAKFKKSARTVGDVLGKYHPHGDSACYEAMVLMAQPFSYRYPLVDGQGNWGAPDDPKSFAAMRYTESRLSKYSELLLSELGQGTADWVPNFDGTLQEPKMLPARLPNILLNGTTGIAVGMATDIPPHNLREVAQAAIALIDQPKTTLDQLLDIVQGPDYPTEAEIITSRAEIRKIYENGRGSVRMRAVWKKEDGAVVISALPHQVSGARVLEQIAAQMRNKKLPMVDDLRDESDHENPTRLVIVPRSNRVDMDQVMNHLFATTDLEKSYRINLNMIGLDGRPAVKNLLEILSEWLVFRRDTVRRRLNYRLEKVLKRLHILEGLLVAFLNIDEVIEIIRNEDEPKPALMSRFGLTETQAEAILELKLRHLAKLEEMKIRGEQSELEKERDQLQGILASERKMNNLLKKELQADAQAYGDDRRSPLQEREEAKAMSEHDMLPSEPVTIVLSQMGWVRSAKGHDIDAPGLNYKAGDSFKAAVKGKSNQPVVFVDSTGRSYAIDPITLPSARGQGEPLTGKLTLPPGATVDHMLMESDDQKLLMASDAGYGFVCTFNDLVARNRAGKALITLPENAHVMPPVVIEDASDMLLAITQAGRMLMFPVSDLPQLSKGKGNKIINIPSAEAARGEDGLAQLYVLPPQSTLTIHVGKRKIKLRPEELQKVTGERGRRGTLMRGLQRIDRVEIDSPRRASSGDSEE

[3] = system: Haemophilus influenza (5 strains); assay: MIC range, broader panel of Quotient Bioresearch strains (Table 4); type: cell-based, Haemophilus influenzae; conditions: for MIC50: 16 h, Median of the strain panel
[4] = Metabolic stability in liver microsomes +/- S9 fraction (Table 8); type: in vitro ADME; conditions: 1 μM
Description: Metabolic stability of a select number of examples was tested in liver microsomes+/−addition of S9 fraction as described by Kuhnz, W. and Gieschen, H. (1998), Drug Metab. Dispos., 1120-1127. Test concentration was 1 μM and HPLC/MS-MS was used for detection.

[5] = system: Streptococcus pyogenes (4 strains); assay: MIC range, broader panel of Quotient Bioresearch strains (Table 3); conditions: for MIC50: read-out: MIC Range Median, Streptococcus pyogenes (4 strains)
[6] = system: Burkholderia cepacia (5 strains); assay: MIC range, broader panel of Quotient Bioresearch strains (Table 4); type: cell-based; conditions: for MIC50: read-out: MIC Range Median, Burkholderia cepacia (5 strains)
[7] = system: Acinetobacter baumannii, quinolone-resistant strains (Quotient Bioresearch catalogue); assay: MIC against pathogens resistant against quinolones (Table 5); type: cell-based; conditions: Acinetobacter baumannii, GN54
physchem = type: physicochemical; conditions: thermodynamic from solid
Description: The solutions were incubated at room temperature for 24 hours before quantification by HPLC detection. Aqueous solubility was evaluated in simulated gastric fluid (SGF), simulated intestinal fluid (SIF) and phosphate buffer saline (PBS) pH 7.4. Aqueous solubility is expressed in Table 11 as mean solubility in μM.

[8] = system: Streptococcus pneumonia (5 strains); assay: MIC range, broader panel of Quotient Bioresearch strains (Table 3); conditions: Streptococcus pneumoniae; for MIC50: read-out: MIC Range Median, Streptococcus pneumonia (5 strains)
bacterial gyrase = bacterial gyrase (Escherichia coli, UniProt P0AES4+P0AES6); assay: Inhibition of topoisomerases activity in vitro, Topogen protocol TG1003 (Table 7); type: biochemical
bacterial gyrase, sequence (P0AES4 whole entry, one chain of several): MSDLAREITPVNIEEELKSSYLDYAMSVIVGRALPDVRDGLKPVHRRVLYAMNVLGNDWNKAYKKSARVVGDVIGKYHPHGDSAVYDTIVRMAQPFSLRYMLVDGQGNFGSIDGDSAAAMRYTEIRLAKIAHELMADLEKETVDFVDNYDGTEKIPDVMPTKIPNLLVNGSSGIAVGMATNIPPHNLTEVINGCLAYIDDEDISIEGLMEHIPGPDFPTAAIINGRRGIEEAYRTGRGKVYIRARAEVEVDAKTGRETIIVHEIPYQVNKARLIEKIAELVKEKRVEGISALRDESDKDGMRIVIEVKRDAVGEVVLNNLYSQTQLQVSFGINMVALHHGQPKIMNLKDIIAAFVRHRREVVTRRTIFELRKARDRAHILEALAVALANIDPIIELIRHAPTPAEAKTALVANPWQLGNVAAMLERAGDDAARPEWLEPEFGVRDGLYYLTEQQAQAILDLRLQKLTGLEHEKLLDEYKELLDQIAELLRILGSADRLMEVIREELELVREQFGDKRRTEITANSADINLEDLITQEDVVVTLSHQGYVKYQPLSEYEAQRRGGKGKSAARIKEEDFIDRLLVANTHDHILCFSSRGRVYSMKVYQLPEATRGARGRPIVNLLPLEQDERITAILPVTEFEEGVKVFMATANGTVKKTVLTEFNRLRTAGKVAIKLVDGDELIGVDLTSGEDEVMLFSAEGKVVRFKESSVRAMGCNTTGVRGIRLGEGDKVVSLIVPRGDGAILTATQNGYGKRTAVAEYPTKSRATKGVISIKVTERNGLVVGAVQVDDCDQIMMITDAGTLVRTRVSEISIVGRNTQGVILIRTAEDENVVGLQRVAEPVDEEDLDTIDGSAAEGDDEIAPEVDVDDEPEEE

[9] = system: Acinetobacter baumannii (12 strains); assay: MIC range, broader panel of Quotient Bioresearch strains (Table 4); type: cell-based; conditions: for MIC50: read-out: MIC Range Median, Acinetobacter baumannii (12 strains)
[10] = system: Staphylococcus aureus (16 strains); assay: MIC range, broader panel of Quotient Bioresearch strains (Table 3); conditions: for MIC50: read-out: MIC Range Median, Staphylococcus aureus (16 strains)
[11] = system: Escherichia coli (6 strains); assay: MIC range, broader panel of Quotient Bioresearch strains (Table 4); type: cell-based; conditions: for MIC50: read-out: MIC Range Median, Escherichia coli (6 strains)
[12] = system: Klebsiella pneumonia (4 strains); assay: as above; type: cell-based; conditions: Klebsiella pneumoniae; for MIC50: read-out: MIC Range Median, Klebsiella pneumonia (4 strains)
[13] = system: Pseudomonas aeruginosa (12 strains); assay: as above; type: cell-based; conditions: for MIC50: read-out: MIC Range Median, Pseudomonas aeruginosa (12 strains)
[14] = system: Group C Streptococcus (4 strains); assay: MIC range, broader panel of Quotient Bioresearch strains (Table 3); conditions: for MIC50: read-out: MIC Range Median, Group C Streptococcus (4 strains)
[15] = system: Enterococcus faecium (3 strains); assay: as above; conditions: for MIC50: read-out: MIC Range Median, Enterococcus faecium (3 strains)
[16] = read-out: MIC Range High, Enterococcus faecalis (5 strains)
[17] = read-out: MIC Range Low, Enterococcus faecalis (5 strains)
[18] = High of the strain panel, read-out: MIC Range High, Haemophilus influenza (5 strains)
[19] = Low of the strain panel, read-out: MIC Range Low, Haemophilus influenza (5 strains)
[20] = read-out: MIC Range High, Streptococcus pyogenes (4 strains)
[21] = read-out: MIC Range Low, Streptococcus pyogenes (4 strains)
[22] = read-out: MIC Range High, Burkholderia cepacia (5 strains)
[23] = read-out: MIC Range Low, Burkholderia cepacia (5 strains)
[24] = read-out: MIC Range Low, Streptococcus pneumonia (5 strains)
[25] = read-out: MIC Range High, Staphylococcus aureus (16 strains)
[26] = read-out: MIC Range Low, Staphylococcus aureus (16 strains)
[27] = read-out: MIC Range High, Group C Streptococcus (4 strains)
[28] = read-out: MIC Range Low, Group C Streptococcus (4 strains)
[29] = read-out: MIC Range Low, Enterococcus faecium (3 strains)

SMILES: Cc1c(-c2ccc(N)c(F)c2)ccn2c(=O)c(C(=O)[O-])cc(C3CC3)c12.[K+] [Example 2 K salt, potassium 8-(4-amino-3-fluoro-phenyl)-1-cyclopropyl-9-methyl-4-oxo-4H-quinolizine-3-carboxylate]
- MIC [1, 16]: 1 µg/mL
- MIC [1, 17]: ≤ 0.015 µg/mL
- MIC50 [1]: 0.03 µg/mL
- IC50 [2]: 4.43 µM
- MIC50 [3]: ≤ 0.015 µg/mL
- MIC [3, 18]: ≤ 0.015 µg/mL
- MIC [3, 19]: ≤ 0.015 µg/mL
- Mean Parent Remaining ([4]; Liver microsomes + S9, human): 95%
- Mean Parent Remaining ([4]; Liver microsomes + S9, mouse): 58%
- Mean Parent Remaining ([4]; Liver microsomes, human): 90%
- Mean Parent Remaining ([4]; Liver microsomes, mouse): 53%
- MIC [5, 20]: 0.12 µg/mL
- MIC [5, 21]: 0.06 µg/mL
- MIC50 [5]: 0.09 µg/mL
- MIC [6, 22]: 0.25 µg/mL
- MIC [6, 23]: 0.06 µg/mL
- MIC50 [6]: 0.12 µg/mL
- MIC [7]: 2 µg/mL
- solubility at 24 h (physchem; fassgf or other biorelevant): 171 µM
- solubility at 24 h (physchem; pH 7.4, aqueous buffer): 28 µM
- solubility at 24 h (physchem; simulated gastric fluid): 21 µM
- MIC [8, 24]: 0.06 µg/mL
- MIC50 [8]: 0.12 µg/mL
- IC50 (bacterial gyrase): ≤ 1.42 µM
- MIC ([9]; read-out: MIC Range High, Acinetobacter baumannii (12 strains)): 16 µg/mL
- MIC ([9]; read-out: MIC Range Low, Acinetobacter baumannii (12 strains)): 0.06 µg/mL
- MIC50 [9]: 6 µg/mL
- MIC [10, 25]: 0.25 µg/mL
- MIC [10, 26]: ≤ 0.015 µg/mL
- MIC50 [10]: 0.06 µg/mL
- MIC ([11]; read-out: MIC Range High, Escherichia coli (6 strains)): 16 µg/mL
- MIC ([11]; read-out: MIC Range Low, Escherichia coli (6 strains)): ≤ 0.015 µg/mL
- MIC50 [11]: 16 µg/mL
- MIC ([12]; read-out: MIC Range High, Klebsiella pneumonia (4 strains)): 16 µg/mL
- MIC ([12]; read-out: MIC Range Low, Klebsiella pneumonia (4 strains)): 0.12 µg/mL
- MIC50 [12]: 10 µg/mL
- MIC ([13]; read-out: MIC Range High, Pseudomonas aeruginosa (12 strains)): 16 µg/mL
- MIC ([13]; read-out: MIC Range Low, Pseudomonas aeruginosa (12 strains)): 0.5 µg/mL
- MIC50 [13]: 4 µg/mL
- MIC [14, 27]: 0.12 µg/mL
- MIC [14, 28]: 0.03 µg/mL
- MIC50 [14]: 0.06 µg/mL
- MIC [15, 29]: 0.12 µg/mL
- MIC50 [15]: 0.5 µg/mL

SMILES: Cc1c(C2=CCNCC2)ccn2c(=O)c(C(=O)O)cc(C3CC3)c12 [Example 42, 1-cyclopropyl-9-methyl-4-oxo-8-(1,2,3,6-tetrahydropyridin-4-yl)-4H-quinolizine-3-carboxylic acid]
- MIC [1, 16]: 32 µg/mL (≈ 98.6 µM)
- MIC [1, 17]: 4 µg/mL (≈ 12.3 µM)
- MIC50 [1]: 4 µg/mL (≈ 12.3 µM)
- MIC50 [3]: 0.06 µg/mL (≈ 0.185 µM)
- MIC [3, 18]: 0.06 µg/mL (≈ 0.185 µM)
- MIC [3, 19]: 0.03 µg/mL (≈ 0.0925 µM)
- MIC [5, 20]: 8 µg/mL (≈ 24.7 µM)
- MIC [5, 21]: 2 µg/mL (≈ 6.17 µM)
- MIC50 [5]: 3 µg/mL (≈ 9.25 µM)
- MIC [6, 22]: 2 µg/mL (≈ 6.17 µM)
- MIC [6, 23]: 2 µg/mL (≈ 6.17 µM)
- MIC50 [6]: 2 µg/mL (≈ 6.17 µM)
- MIC ([8]; read-out: MIC Range High, Streptococcus pneumonia (5 strains)): 8 µg/mL (≈ 24.7 µM)
- MIC [8, 24]: 4 µg/mL (≈ 12.3 µM)
- MIC50 [8]: 4 µg/mL (≈ 12.3 µM)
- MIC ([9]; High of the strain panel, read-out: MIC Range High, Acinetobacter baumannii (12 strains)): > 32 µg/mL
- MIC ([9]; Low of the strain panel, read-out: MIC Range Low, Acinetobacter baumannii (12 strains)): 0.25 µg/mL (≈ 0.771 µM)
- MIC50 ([9]; Median of the strain panel): > 32 µg/mL
- MIC [10, 25]: 32 µg/mL (≈ 98.6 µM)
- MIC [10, 26]: 0.5 µg/mL (≈ 1.54 µM)
- MIC50 [10]: 16.2 µg/mL (≈ 50.1 µM)
- MIC ([11]; High of the strain panel, read-out: MIC Range High, Escherichia coli (6 strains)): > 32 µg/mL
- MIC ([11]; Low of the strain panel, read-out: MIC Range Low, Escherichia coli (6 strains)): 0.06 µg/mL (≈ 0.185 µM)
- MIC50 ([11]; Median of the strain panel): 32 µg/mL (≈ 98.6 µM)
- MIC ([12]; High of the strain panel, read-out: MIC Range High, Klebsiella pneumonia (4 strains)): > 32 µg/mL
- MIC ([12]; Low of the strain panel, read-out: MIC Range Low, Klebsiella pneumonia (4 strains)): 0.12 µg/mL (≈ 0.37 µM)
- MIC50 ([12]; Median of the strain panel): 8 µg/mL (≈ 24.7 µM)
- MIC ([13]; High of the strain panel, read-out: MIC Range High, Pseudomonas aeruginosa (12 strains)): > 32 µg/mL
- MIC ([13]; Low of the strain panel, read-out: MIC Range Low, Pseudomonas aeruginosa (12 strains)): 1 µg/mL (≈ 3.08 µM)
- MIC50 ([13]; Median of the strain panel): 32 µg/mL (≈ 98.6 µM)
- MIC [14, 27]: 4 µg/mL (≈ 12.3 µM)
- MIC [14, 28]: 2 µg/mL (≈ 6.17 µM)
- MIC50 [14]: 2 µg/mL (≈ 6.17 µM)
- MIC ([15]; read-out: MIC Range High, Enterococcus faecium (3 strains)): > 32 µg/mL
- MIC [15, 29]: 16 µg/mL (≈ 49.3 µM)
- MIC50 [15]: > 32 µg/mL
